Test [1] in a line: Artemis endonuclease inhibitor potency, dose response, biochemical, fluorescence intensity (AID 720701).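 Further: Artemis endonuclease enzyme.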 The format is functional.
The target of test [2] is T1, Mannose-6-phosphate isomerase (Homo sapiens, UniProt P34949).
T1 sequence (P34949 whole entry): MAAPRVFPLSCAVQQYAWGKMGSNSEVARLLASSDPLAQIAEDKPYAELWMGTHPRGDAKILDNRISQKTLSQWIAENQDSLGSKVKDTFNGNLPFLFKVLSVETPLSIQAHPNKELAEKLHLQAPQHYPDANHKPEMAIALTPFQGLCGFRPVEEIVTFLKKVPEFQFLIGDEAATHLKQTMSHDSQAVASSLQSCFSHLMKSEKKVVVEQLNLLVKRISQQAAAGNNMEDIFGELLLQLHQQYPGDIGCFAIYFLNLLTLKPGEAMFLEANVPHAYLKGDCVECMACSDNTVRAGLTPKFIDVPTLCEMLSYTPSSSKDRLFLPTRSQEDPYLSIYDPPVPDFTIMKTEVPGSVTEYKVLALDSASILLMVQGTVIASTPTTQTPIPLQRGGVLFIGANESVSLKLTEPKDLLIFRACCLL
Nature of the test: human PMI inhibitors, high substrate, primary screen, biochemical, fluorescence intensity, high mannose 6-phosphate (AID 1220).

The target of test [3] is T1, Mannose-6-phosphate isomerase. Briefly: inhibitors of human PMI, primary screen, biochemical, fluorescence intensity, coupled assay (AID 1209).
Test [4] can be described thus: Luminescence Cell-Based Dose Confirmation HTS to Identify Inhibitors of Platelet Dense Granule Release. [Related pubchem assays: 1663 (Primary HTS), 1678 (Summary of Project)]. The format is functional.
In test [5] the test system is HT-1080. Nature of the test: cytotoxicity in HT1080 fibrosarcoma cells, cell-based, fluorescence readout (AID 620). The format is functional. Conditions: Homo sapiens.
Test [6] has as its target T2, Luciferin 4-monooxygenase (Photinus pyralis, UniProt P08659). Nature of the test: firefly luciferase enzyme inhibitors, dose response, biochemical, luminescence (AID 1891).
The target of test [7] is T2, Luciferin 4-monooxygenase. Nature of the test: Counter Screen for Luciferase-based Assay Positives. [Related pubchem assays: 620, 618, 411 ]. Background: Counterscreens check selectivity or assay interference.
Test [8] has as its target T3, Sentrin-specific protease 8 (Homo sapiens, UniProt Q96LD8).
T3 sequence (Q96LD8 whole entry): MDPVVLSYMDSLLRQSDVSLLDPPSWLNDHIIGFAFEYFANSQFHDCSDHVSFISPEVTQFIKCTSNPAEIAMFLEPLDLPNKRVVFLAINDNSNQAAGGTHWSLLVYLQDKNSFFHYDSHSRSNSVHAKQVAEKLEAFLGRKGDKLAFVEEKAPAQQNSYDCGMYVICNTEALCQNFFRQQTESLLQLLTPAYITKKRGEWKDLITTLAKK
Nature of the test: SENP8 protease inhibitors, SAR follow-up, biochemical, luminescence (AID 504501). The format is functional.

Test [9] deals with T4, Sentrin-specific protease 6 (Homo sapiens, UniProt Q9GZR1).
T4 sequence (Q9GZR1 whole entry): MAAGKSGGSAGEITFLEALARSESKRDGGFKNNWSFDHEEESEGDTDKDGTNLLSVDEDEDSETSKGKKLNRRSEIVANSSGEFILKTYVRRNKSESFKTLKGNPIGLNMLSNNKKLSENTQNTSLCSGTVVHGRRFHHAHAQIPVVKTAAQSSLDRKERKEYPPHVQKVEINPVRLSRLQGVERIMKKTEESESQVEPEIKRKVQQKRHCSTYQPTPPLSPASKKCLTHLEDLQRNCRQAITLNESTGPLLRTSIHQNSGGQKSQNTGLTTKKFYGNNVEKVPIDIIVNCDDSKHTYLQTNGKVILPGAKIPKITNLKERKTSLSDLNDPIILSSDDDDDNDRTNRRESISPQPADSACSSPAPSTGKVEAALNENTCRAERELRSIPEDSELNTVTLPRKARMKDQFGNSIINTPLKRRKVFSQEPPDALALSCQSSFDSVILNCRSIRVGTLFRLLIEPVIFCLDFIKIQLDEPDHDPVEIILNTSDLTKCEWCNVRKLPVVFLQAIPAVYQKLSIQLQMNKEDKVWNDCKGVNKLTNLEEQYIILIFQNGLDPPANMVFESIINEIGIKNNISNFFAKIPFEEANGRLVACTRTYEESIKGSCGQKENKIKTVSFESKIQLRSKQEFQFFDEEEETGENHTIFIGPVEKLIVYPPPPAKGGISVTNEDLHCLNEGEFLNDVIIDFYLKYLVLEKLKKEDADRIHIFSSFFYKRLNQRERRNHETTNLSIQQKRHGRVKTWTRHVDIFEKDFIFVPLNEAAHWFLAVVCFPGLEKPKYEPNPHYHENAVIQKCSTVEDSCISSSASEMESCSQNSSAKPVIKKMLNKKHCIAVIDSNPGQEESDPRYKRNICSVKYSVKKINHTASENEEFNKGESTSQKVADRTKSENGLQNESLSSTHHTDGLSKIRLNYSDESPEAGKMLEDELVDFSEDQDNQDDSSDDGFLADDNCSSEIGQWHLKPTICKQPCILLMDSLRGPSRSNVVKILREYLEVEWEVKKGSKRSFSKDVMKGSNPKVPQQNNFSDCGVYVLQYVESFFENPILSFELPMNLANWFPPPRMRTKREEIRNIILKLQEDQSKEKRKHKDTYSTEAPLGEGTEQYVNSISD
Nature of the test: SAR Analysis of small molecule inhibitors of Sentrin-specific protease 6 (SENP6) using a Luminescent assay. [Related pubchem assays (depositor defined):AID2582, AID2599]. The test is classed as functional.

For test [10], the target named is T5, Sentrin-specific protease 7 (Homo sapiens, UniProt Q9BQF6).
T5 sequence (Q9BQF6 whole entry): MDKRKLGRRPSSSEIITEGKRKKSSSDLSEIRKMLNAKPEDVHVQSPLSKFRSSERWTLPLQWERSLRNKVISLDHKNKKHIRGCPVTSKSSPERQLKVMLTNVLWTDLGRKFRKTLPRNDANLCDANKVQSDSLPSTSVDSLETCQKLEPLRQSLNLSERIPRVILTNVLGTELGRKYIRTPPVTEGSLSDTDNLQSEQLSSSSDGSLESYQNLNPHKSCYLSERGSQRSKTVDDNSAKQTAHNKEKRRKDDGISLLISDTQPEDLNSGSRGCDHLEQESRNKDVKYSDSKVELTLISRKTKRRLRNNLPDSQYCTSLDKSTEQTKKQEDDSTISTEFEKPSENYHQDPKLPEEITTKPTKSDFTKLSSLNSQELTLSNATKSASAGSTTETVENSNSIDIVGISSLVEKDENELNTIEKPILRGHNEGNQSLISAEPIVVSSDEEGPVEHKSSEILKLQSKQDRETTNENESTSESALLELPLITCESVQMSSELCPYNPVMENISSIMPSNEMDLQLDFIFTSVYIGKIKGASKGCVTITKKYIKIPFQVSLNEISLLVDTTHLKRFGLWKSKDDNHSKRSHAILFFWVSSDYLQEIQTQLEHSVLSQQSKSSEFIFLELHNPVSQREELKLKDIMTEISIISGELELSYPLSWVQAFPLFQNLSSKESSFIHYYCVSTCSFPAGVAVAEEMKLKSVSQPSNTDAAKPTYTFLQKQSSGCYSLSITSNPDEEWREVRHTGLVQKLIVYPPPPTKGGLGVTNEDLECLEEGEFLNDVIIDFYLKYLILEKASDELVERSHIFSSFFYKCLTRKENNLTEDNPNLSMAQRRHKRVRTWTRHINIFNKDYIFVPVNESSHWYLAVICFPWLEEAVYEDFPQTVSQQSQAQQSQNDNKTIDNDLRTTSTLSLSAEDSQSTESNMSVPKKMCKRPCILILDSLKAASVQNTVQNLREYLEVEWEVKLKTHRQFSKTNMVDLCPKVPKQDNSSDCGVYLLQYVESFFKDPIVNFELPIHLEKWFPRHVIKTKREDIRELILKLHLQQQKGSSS
Briefly: SENP7 protease inhibitors, SAR follow-up, biochemical, luminescence (AID 504497). The test is classed as functional.

Test [11] concerns the target T6, Estrogen receptor (Homo sapiens, UniProt P03372).
T6 sequence (P03372 whole entry): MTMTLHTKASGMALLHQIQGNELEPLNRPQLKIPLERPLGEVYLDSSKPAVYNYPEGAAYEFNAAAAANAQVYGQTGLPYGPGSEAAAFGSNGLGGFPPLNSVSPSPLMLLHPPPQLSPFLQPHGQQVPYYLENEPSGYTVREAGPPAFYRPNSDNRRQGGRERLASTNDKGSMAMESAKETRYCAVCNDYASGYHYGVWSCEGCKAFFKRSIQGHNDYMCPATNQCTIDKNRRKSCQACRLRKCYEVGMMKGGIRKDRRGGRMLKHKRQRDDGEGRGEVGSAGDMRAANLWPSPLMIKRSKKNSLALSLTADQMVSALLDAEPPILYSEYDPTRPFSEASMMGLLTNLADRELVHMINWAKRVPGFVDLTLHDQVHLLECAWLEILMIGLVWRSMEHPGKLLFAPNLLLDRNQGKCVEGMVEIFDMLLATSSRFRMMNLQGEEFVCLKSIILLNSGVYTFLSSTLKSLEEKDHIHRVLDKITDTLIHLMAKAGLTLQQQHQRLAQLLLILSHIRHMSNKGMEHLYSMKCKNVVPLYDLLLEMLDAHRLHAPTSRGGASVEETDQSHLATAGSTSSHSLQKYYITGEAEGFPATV

The target in test [12] is T7, Caspase-3 (Homo sapiens, UniProt P42574).
T7 sequence (P42574 whole entry): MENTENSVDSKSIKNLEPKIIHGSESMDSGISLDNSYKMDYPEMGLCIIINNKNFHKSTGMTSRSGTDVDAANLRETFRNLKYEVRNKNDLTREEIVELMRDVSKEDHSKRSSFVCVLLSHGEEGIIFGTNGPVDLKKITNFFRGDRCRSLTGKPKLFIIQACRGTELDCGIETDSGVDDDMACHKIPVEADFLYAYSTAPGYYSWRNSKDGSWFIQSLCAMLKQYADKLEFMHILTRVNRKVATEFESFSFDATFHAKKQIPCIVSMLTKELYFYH
Briefly: SAR Analysis of small molecule inhibitors of Sentrin-specific proteases (SENPs) using a Caspase-3 Selectivity assay. [Related pubchem assays (depositor defined):AID2540, AID2599, AID434973, AID489001]. The test is classed as functional.

Test [13] deals with Estrogen receptor beta (Homo sapiens, UniProt Q92731). Nature of the test: ERβ–SRC-3 coactivator interaction inhibitors, confirmation, orthogonal assay, biochemical, ELISA, streptavidin-HRP readout (AID 1060).
Sequence of Estrogen receptor beta (Q92731 whole entry): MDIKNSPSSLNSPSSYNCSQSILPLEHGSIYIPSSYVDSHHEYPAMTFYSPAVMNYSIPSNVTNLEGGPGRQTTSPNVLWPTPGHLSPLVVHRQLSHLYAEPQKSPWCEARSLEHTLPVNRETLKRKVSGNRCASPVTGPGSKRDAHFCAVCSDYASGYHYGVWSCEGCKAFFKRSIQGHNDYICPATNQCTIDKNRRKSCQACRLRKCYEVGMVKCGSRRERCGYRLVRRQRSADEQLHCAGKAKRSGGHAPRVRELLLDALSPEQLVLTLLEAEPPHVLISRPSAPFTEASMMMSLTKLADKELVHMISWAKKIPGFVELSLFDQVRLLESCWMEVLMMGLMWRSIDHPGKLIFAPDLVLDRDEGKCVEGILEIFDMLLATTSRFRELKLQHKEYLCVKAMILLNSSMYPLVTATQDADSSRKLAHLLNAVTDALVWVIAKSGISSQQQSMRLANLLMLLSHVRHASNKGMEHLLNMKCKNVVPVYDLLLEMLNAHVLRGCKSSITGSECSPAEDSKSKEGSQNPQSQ

The source made the active and inactive calls.

The IC50 is the midpoint of a concentration-inhibition curve. As a reminder, the EC50 is the midpoint of the concentration-response curve.

T2 sequence (P08659 whole entry): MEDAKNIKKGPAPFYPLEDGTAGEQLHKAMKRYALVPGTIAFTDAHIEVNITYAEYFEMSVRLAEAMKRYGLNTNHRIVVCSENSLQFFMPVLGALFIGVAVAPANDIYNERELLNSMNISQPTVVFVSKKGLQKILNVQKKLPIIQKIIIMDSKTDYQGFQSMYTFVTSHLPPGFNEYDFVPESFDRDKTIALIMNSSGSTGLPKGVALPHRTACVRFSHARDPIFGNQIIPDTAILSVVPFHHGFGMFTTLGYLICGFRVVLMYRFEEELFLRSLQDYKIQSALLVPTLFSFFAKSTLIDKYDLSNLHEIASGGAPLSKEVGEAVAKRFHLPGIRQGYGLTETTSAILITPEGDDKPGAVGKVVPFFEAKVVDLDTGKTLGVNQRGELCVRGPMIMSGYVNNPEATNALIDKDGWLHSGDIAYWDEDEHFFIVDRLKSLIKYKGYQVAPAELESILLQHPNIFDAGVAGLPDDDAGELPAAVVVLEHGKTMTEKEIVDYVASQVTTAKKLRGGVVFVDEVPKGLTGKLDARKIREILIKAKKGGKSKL

With `Cc1cc(C)c(C(N)=O)c(Nc2cccc3ccccc23)n1`, the IC50 in [1] was > 20 µM (inactive); in test [2], > 50 µM (not active); in test [3], > 50 µM (not active).

On to `COC(=O)c1nn(-c2ccc(-c3ccccc3)cc2)cc1O`, for which the EC50 was 3.79 µM (active) in test [4], > 50 µM (not active) in [5], 1.93 µM (active) in test [6] and > 100 µM (not active) in test [7].

In the case of `CC1CCc2c(sc(NC(=O)c3ccc(Cn4cc(Br)cn4)o3)c2C(N)=O)C1` (stereo unspecified), the IC50 was > 99 µM (inactive) in test [8]; > 99 µM (inactive) in test [9]; > 99 µM (inactive) in test [10]; > 50 µM (not active) in test [11]; > 99 µM (inactive) in test [12].

Consider `Cc1cc(C)c(OCC(=O)Nc2cccc(O)c2)cc1C`, for which the figures for the EC50 in test [5] and in [7] were > 50 µM (not active) and 3.52 µM (active), respectively.

Consider `N#CC1=C(N)OC2=C(CCC/C2=C/c2ccoc2)C1c1ccoc1` (stereo unspecified), for which the IC50 was 10 µM (active) in [11] and 3.99 µM (not active) in [13].

(Values after ChEMBL document CHEMBL1201862, “PubChem BioAssay data set” (2004).)
